# In patent publication US8372799B2, “Reverse protein” (Apeptico Forschung und Entwicklung GmbH, priority 2007, dated 2013):
# Where a SMILES comes first, the peptide text is derived from it. Bridges are numbered along the chain shown (N, C = ends).
# Experiments:
# Interleukin-6 (IL-6) = experiment: Determination of inflammatory parameters: Interleukin-6 release in human fresh blood (ELISA); format: cell-based; settings: for inflammatory proteins such as the inflammation marker Interleukin-6 (IL-6): human immune cells from the blood, protein at a small concentration; for Concentration of Interleukin-6 (average of three measurements): human fresh blood, 24 hours at 37° C.
# Procedure: For the examination, human immune cells from the blood are mixed with protein according to the present invention at a small concentration and are incubated in a manner common in laboratories. Subsequently, marker proteins for inflammations are determined by conventional methods.
# Fresh human blood has a very sensitive reaction to pro-inflammatory molecules, among other things, with a release of the inflammation marker Interleukin-6 (IL-6). For determining the pro-inflammatory reaction, samples of human fresh blood with different concentrations of the protein comprising amino acid sequence SEQ ID NO:3 were incubated at the following concentrations: 10 μg/ml, 3 μg/ml, 1 μg/ml. After an incubation of 24 hours at 37° C., the inflammation marker Interleukin-6 was quantitatively determined in the solution via ELISA. LPS served as a positive control.
# [1] = test system: pulmonary oedema in Wistar rats; experiment: Experimental animal study pulmonary oedema: oxygen content of arterial blood after acid lung rinsing; format: in vivo, rat; settings: 125 μg protein intratracheal, 180 minutes after lung rinsing, before rinsing = 100%, without protein 20%
# Text: For the simulation of an acute lung injury and for the formation of a pulmonary oedema, the lungs of laboratory animals, e.g., mice or rats, can be rinsed several times with an acidified saline solution in a manner common in laboratories (for example, according to Isik F. et al., Eur J Cardiothorac Surg (2005); 28: 301-305). The result is a decrease in lung function. If a protein according to the present invention, e.g., a protein of amino acid sequence SEQ ID NO:1, SEQ ID NO:2 or SEQ ID NO:3, is injected as a fog or in an aqueous solution into the lungs of the laboratory animals, a distinct improvement in the lung function will occur within 3 to 5 hours, as indicated by the increased oxygen content in the arterial blood. Thus, a protein according to the present invention can be used for the treatment of oedemas such as pulmonary oedemas.
# Male Wistar rats (weighing from 250 g to 350 g) are anesthetized with Rompun® (0.02 ml/100 g) and Ketavet® (0.1 ml/100 g). The respiration is done with a cycle of […], with an inhalation time of 0.2 seconds and an exhalation time of 0.5 seconds. The body temperature ranges, on average, from 37° C. to 39° C. […]
# At intervals of 60 minutes each, arterial blood (0.1 ml) is withdrawn from the animals, and the oxygen content is determined in % relative to the normal value.
# The verification of the stimulating effect of a protein according to the present invention, e.g., of a protein comprising amino acid sequence SEQ ID NO:1, SEQ ID NO:2 or SEQ ID NO:3, on the lung function is made via experimental animal studies in which a pulmonary oedema is induced. […] In each case, 5 animals are used for objectifying the measured values.
# For the intratracheal inhalation, 125 μg protein are, in each case, dissolved in 150 mM saline solution pH 7.3. The oxygen content of the arterial blood is measured immediately before rinsing the lungs, 60 minutes after rinsing the lungs and 180 minutes after rinsing the lungs.
# The oxygen content immediately before rinsing the lungs is determined to be 100%. […]
Structure (SMILES),inflammatory proteins such as the inflammation marker Interleukin-6 (IL-6) (Interleukin-6 (IL-6)),oxygen content in the arterial blood [1],Concentration of Interleukin-6 (average of three measurements) (Interleukin-6 (IL-6); 1 μg/ml),Concentration of Interleukin-6 (average of three measurements) (Interleukin-6 (IL-6); 10 μg/ml),Concentration of Interleukin-6 (average of three measurements) (Interleukin-6 (IL-6); 1 nμg/ml),Concentration of Interleukin-6 (average of three measurements) (Interleukin-6 (IL-6); 3 nμg/ml)
CC[C@H](C)[C@H](NC(=O)[C@H](C)N)C(=O)N[C@@H](CCCCN)C(=O)N[C@@H](CO)C(=O)N1CCC[C@H]1C(=O)N[C@H]1CSSC[C@@H](C(=O)N2CCC[C@H]2C(=O)N[C@@H](CO)C(=O)N[C@H](C(=O)N[C@@H](Cc2c[nH]cn2)C(=O)N[C@H](C(=O)O)C(C)C)[C@@H](C)O)NC(=O)CNC(=O)CNC(=O)[C@H](CCCCN)NC(=O)[C@H](C)NC(=O)[C@H](CCC(=O)O)NC(=O)[C@H](C)NC(=O)CNC(=O)[C@H](CCC(=O)O)NC(=O)[C@@H]2CCCN2C(=O)[C@H]([C@@H](C)O)NC(=O)[C@H](CCC(=O)O)NC(=O)[C@H](CCCNC(=N)N)NC(=O)[C@H](CCC(N)=O)NC1=O [SEQ ID NO:1] (H-AIKSPCQRETPEGAEAKGGCPSTHV-OH; disulfide 6-20),cannot be detected,60%,,,,
C[C@@H]1NC(=O)CNC(=O)[C@H](CCC(=O)O)NC(=O)[C@@H]2CCCN2C(=O)[C@H]([C@@H](C)O)NC(=O)[C@H](CCC(=O)O)NC(=O)[C@H](CCCNC(=N)N)NC(=O)[C@H](CCC(N)=O)NC(=O)[C@@H](NC(=O)[C@@H]2CCCN2C(=O)[C@H](CO)NC(=O)[C@@H](N)CCCCN)CSSC[C@@H](C(=O)N2CCC[C@H]2C(=O)N[C@@H](CO)C(=O)O)NC(=O)CNC(=O)CNC(=O)[C@H](CCCCN)NC(=O)[C@H](C)NC(=O)[C@H](CCC(=O)O)NC1=O [SEQ ID NO:2] (H-KSPCQRETPEGAEAKGGCPS-OH; disulfide 4-18),cannot be detected,63%,,,,
"C[C@@H]1NC(=O)CNC(=O)[C@H](CCC(=O)O)NC(=O)[C@@H]2CCCN2C(=O)[C@H]([C@@H](C)O)NC(=O)[C@H](CCC(=O)O)NC(=O)[C@H](CCCNC(=N)N)NC(=O)[C@H](CCC(N)=O)NC(=O)[C@@H](N)CSSC[C@@H](C(=O)O)NC(=O)CNC(=O)CNC(=O)[C@H](CCCCN)NC(=O)[C@H](C)NC(=O)[C@H](CCC(=O)O)NC1=O [SEQ ID NO:3, (NH2)Cys-Gln-Arg-Glu-Thr-Pro-Glu-Gly-Ala-Glu-Ala-Lys-Gly-Gly-Cys(COOH)] (H-CQRETPEGAEAKGGC-OH; disulfide 1-15)",cannot be detected,70%,less than 0.5 pg/ml,less than 0.5 pg/ml,less than 0.5 pg/ml,less than 0.5 pg/ml
